For this experiment, the system named is NCI-H196 complex spheroids with HUVEC/MSC, growth % T/C. Put plainly: Anticancer human tumor NCI-H196 cell line growth inhibition [Asc].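 For all read-outs here: spheroids exposed to compound for 7 days before measurement.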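 For viability, T/C: 100% = DMSO vehicle control wells.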 The note with it: for viability, T/C: stronger effect = lower value. The method, boiled down: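 Stromal components (HUVEC and hMSC) are co-assembled with the cancer cells into multicellular spheroids. Drugs are then added singly or paired, at concentrations falling by half-log increments from a clinically achievable maximum, capped at 10 microM without known Cmax.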

Setting [1] is: curve of first compound, second compound 0.1 µM.
Where [2] appears, read: curve of first compound, second compound 0.316 µM.
Setting [3] is: curve of first compound, second compound 1 µM.
The mark [4] stands for this setting: second compound 0.1 µM, first compound 0.0316 µM.
Where [5] appears, read: second compound 0.1 µM, first compound 0.1 µM.
The mark [6] stands for this setting: second compound 0.316 µM, first compound 0.0316 µM.
[7] abbreviates: second compound 0.316 µM, first compound 0.1 µM.
Where [8] appears, read: second compound 1 µM, first compound 0.0316 µM.
Where [9] appears, read: second compound 1 µM, first compound 0.1 µM.

Values joined by “and” are separate entries in the source; they are usually repeats but may differ in a detail not shown here. Identical values can stand only once.

For orientation: IC50 means the concentration that inhibits the measured activity by half. The viability, T/C is the ratio of treated to control. Take `C#Cc1c(F)ccc2cc(O)cc(-c3ncc4c(N5CC6CCC(C5)N6)nc(OCC56CCCN5CC(F)C6)nc4c3F)c12` (stereo not given) + CNC(C)C(=O)NC1CN(S(=O)(=O)c2cccc(S(=O)(=O)N3CCC4CCC(C(=O)NC(c5ccccc5)c5ccccc5)N4C(=O)C(NC(=O)C(C)NC)C3)c2)CCC2CCC(C(=O)NC(c3ccccc3)c3ccccc3)N2C1=O: the IC50 reads like this: (curve of first compound, second compound 0.01 µM) below 31.6 nM; (curve of first compound, second compound 0.0316 µM) below 31.6 nM; under setting [1], below 31.6 nM; under setting [2], below 31.6 nM; under setting [3], below 31.6 nM. Moreover, the viability, T/C is, setting by setting: (second compound 0.01 µM, first compound 0.0316 µM) 8.46%; (second compound 0.01 µM, first compound 0.1 µM) 8.46%; (second compound 0.01 µM, first compound 0.316 µM) 4.34%; (second compound 0.01 µM, first compound 1 µM) 5.01%; (second compound 0.01 µM, first compound 3.16 µM) 4.3%; (second compound 0.01 µM, first compound 10 µM) 1.48%. Further, the viability, T/C is, setting by setting: (second compound 0.0316 µM, first compound 0.0316 µM) 5.72%; (second compound 0.0316 µM, first compound 0.1 µM) 5.7%; (second compound 0.0316 µM, first compound 0.316 µM) 4.82%; (second compound 0.0316 µM, first compound 1 µM) 3.76%; (second compound 0.0316 µM, first compound 3.16 µM) 4.16%; (second compound 0.0316 µM, first compound 10 µM) 0.96%. Also, the viability, T/C under setting [4] was 4.46%; the viability, T/C under setting [5] is 3.83%; the viability, T/C (second compound 0.1 µM, first compound 0.316 µM) was 4.97%; the viability, T/C (second compound 0.1 µM, first compound 1 µM) is 3.85%; the viability, T/C (second compound 0.1 µM, first compound 3.16 µM) is 3.73%; the viability, T/C (second compound 0.1 µM, first compound 10 µM) was 0.77%. The viability, T/C runs as follows: under setting [6], 2.58%; under setting [7], 2.92%; (second compound 0.316 µM, first compound 0.316 µM) 3.31%; (second compound 0.316 µM, first compound 1 µM) 3.63%; (second compound 0.316 µM, first compound 3.16 µM) 2.24%; (second compound 0.316 µM, first compound 10 µM) 1.04%. Further, the viability, T/C by setting is: under setting [8], 3.75%; under setting [9], 2.83%; (second compound 1 µM, first compound 0.316 µM) 3.86%; (second compound 1 µM, first compound 1 µM) 2.71%; (second compound 1 µM, first compound 3.16 µM) 2.69%; (second compound 1 µM, first compound 10 µM) 1.34%.

Regarding `CNC(C)C(=O)NC1CN(S(=O)(=O)c2cccc(S(=O)(=O)N3CCC4CCC(C(=O)NC(c5ccccc5)c5ccccc5)N4C(=O)C(NC(=O)C(C)NC)C3)c2)CCC2CCC(C(=O)NC(c3ccccc3)c3ccccc3)N2C1=O` (stereo not given), the viability, T/C reads like this: (compound 0.00316 µM) 38.2% and 43%; (compound 0.01 µM) 7.09% [middle of 14 runs]; (compound 0.0316 µM) 5.61% [middle of 14 runs]; (compound 0.1 µM) 3.73% [middle of 14 runs]; (compound 0.316 µM) 3.32% [middle of 13 runs]; (compound 1 µM) 2.97% [middle of 14 runs]. Moreover, the half-maximal inhibitory concentration (IC50) is below 10 nM (compound alone, run of 10/03/2022) and below 3.16 nM (curve of compound).

`NC(=O)C(=Cn1cnc(-c2cc(C(F)(F)F)cc(C(F)(F)F)c2)n1)c1cncnc1`: the viability, T/C (compound 0.000949 µM) is 112% and 103% and 99.9%; the viability, T/C (compound 0.003 µM) is 101% and 99.4% and 88.3%; the viability, T/C (compound 0.00949 µM) was 79% and 71.1% and 58.7%; the viability, T/C (compound 0.03 µM) is 48.9% and 49.5% and 27.4%; the viability, T/C (compound 0.0949 µM) was 9.22% and 11.1% and 7.62%; the viability, T/C (compound 0.3 µM) is 6.01% and 7.26% and 5.35%. Moreover, the half-inhibitory concentration (IC50) (curve of compound) is 25.1 nM and 23.9 nM and 13.1 nM.

As for `Cn1ncnc1[C@H]1c2n[nH]c(=O)c3cc(F)cc(c23)N[C@@H]1c1ccc(F)cc1` + Cc1c(S(C)(=O)=O)c(-c2cc(F)cc(N3CCN(c4ccc(NS(=O)(=O)c5ccc(NC(CCN6CCC(C(=O)OCCCP(=O)(O)O)CC6)CSc6ccccc6)c(S(=O)(=O)C(F)(F)F)c5)cc4)CC3)c2)c(-c2ccc(Cl)cc2)n1C(C)C, the IC50 reads like this: under setting [1], above 100 nM; under setting [2], above 100 nM; under setting [3], above 100 nM; (curve of first compound, second compound 3.16 µM) above 100 nM; (curve of first compound, second compound 10 µM) above 100 nM. For the same compound, the viability, T/C is, setting by setting: (second compound 0.1 µM, first compound 0.000316 µM) 107%; (second compound 0.1 µM, first compound 0.001 µM) 101%; (second compound 0.1 µM, first compound 0.00316 µM) 102%; (second compound 0.1 µM, first compound 0.01 µM) 101%; under setting [4], 94.8%; under setting [5], 98.4%. For the same compound, the viability, T/C is, setting by setting: (second compound 0.316 µM, first compound 0.000316 µM) 102%; (second compound 0.316 µM, first compound 0.001 µM) 105%; (second compound 0.316 µM, first compound 0.00316 µM) 107%; (second compound 0.316 µM, first compound 0.01 µM) 95.2%; under setting [6], 89%; under setting [7], 93.4%. Further, the viability, T/C was 97% (second compound 1 µM, first compound 0.000316 µM); 94.9% (second compound 1 µM, first compound 0.001 µM); 94.5% (second compound 1 µM, first compound 0.00316 µM); 95.7% (second compound 1 µM, first compound 0.01 µM); 86.2% under setting [8]; 94% under setting [9]. Also, the viability, T/C reads like this: (second compound 3.16 µM, first compound 0.000316 µM) 93.1%; (second compound 3.16 µM, first compound 0.001 µM) 84.4%; (second compound 3.16 µM, first compound 0.00316 µM) 78.5%; (second compound 3.16 µM, first compound 0.01 µM) 79.1%; (second compound 3.16 µM, first compound 0.0316 µM) 80.1%; (second compound 3.16 µM, first compound 0.1 µM) 80.1%. The viability, T/C was 77.2% (second compound 10 µM, first compound 0.000316 µM); 85% (second compound 10 µM, first compound 0.001 µM); 78.7% (second compound 10 µM, first compound 0.00316 µM); 73.9% (second compound 10 µM, first compound 0.01 µM); 62.8% (second compound 10 µM, first compound 0.0316 µM); 66.8% (second compound 10 µM, first compound 0.1 µM).

Values taken from PubChem BioAssay AID1963439 (Molecular Pharmacology Branch, DTP, NCI, 2024).
